Test results from PMC11649397, “The study of halogen effect on the reactivity of the serine-targeting covalent warheads” (Frontiers in Chemistry, 2024).

Tests used:
Notum = target: T1, Notum (Homo sapiens, UniProt Q6P988); assay: Inhibition assay on Notum (substrate OPTS); format: biochemical; conditions: 10 μM, selectivity screening
T1 sequence (Q6P988 20-496): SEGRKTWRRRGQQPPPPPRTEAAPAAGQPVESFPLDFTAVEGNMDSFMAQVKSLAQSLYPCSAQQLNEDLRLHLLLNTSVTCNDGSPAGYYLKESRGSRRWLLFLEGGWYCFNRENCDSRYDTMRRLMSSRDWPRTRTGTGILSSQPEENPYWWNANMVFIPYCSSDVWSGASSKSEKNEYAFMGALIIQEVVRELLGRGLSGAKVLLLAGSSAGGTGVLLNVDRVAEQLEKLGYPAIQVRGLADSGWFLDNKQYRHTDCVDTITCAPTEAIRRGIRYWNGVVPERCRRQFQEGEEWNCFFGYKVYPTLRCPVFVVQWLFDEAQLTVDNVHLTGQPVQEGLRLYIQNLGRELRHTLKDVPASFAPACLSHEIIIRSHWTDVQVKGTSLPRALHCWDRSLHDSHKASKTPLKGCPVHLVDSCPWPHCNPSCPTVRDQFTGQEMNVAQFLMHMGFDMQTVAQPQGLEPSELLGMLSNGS
Procedure: fluorogenic probe. 4 Briefly, the incubation mixtures (0.1 mL) contained Tris-HCl buffer, hPL solution (0.25 μg/mL, final concentration), porcine bile salt (0.1 mg/mL, final concentration) and each inhibitor (with different concentrations). After preincubated at 37 °C for 3 min, DDAO-ol (20 µM, final concentration) was added to initial reaction. The fluorescent signals of hydrolytic product were quantified by using the microplate reader (Spectra Max M4, Austria), with the wavelength of 600 nm and 660 nm for excitation and emission, respectively.
Inhibition assay on Notum
OPTS, a known fluorogenic probe, was used as the substrate to assess the residual activities of Notum in the presence of each tested compound. […] After preincubated at 37 °C for 1 min, OPTS was added to initiate the hydrolytic reaction and the multi-mode microplate reader (SpectraMax iD3, Molecular Devices, Austria) was used to analyze the florescence signals of the […]
The F-3, F-4, F-10-bound peptides was analysed using the nanoLC-MS/MS system, respectively.6 The purified hCES1A (150 μg, final content) was co-incubated with the small molecule inhibitor F-3/ F-4/ F-10 (100 μM, final concentration) at 4 °C and 25 °C, respectively, for 4h. […]

[1] = target: T2, human pancreatic lipase (hPL) (Homo sapiens, UniProt P16233); assay: Inhibition assay on human pancreatic lipase (substrate DDAO-ol); format: biochemical; conditions: 10 μM, selectivity screening
T2 sequence (P16233 17-465): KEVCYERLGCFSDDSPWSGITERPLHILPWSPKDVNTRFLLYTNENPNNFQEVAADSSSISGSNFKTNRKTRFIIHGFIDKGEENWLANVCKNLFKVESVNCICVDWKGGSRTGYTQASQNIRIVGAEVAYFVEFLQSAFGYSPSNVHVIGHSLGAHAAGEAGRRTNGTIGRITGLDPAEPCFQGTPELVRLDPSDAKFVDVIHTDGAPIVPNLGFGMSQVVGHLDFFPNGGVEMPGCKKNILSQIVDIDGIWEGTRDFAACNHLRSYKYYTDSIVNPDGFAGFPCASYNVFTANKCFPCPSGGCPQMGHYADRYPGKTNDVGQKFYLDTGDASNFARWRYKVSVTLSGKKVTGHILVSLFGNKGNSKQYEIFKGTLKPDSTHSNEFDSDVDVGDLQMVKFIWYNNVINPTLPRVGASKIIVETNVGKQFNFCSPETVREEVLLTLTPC
From the text: 1. Detailed experimental, materials, and methods
The household library of covalent fragments including D and F was from Organic Chemistry […]
Fig. S1. Partial fragment molecules of a household library targeting to serine.
Commercially available materials were ordered from commercial suppliers (Bidepharm, Shanghai, China) and used without further purification. Structures were checked by 1H- and 13C-NMR spectra on a Bruker AVANCE 600/125 MHz instrument for confirmation, using DMSO- d6 or CDCl 3 as the solvent. Molecular orbitals were calculated using Gaussian 09W and image generated by GaussView 6.0.1
Inhibition assay on hCES1A
In this study, a known bioluminogenic probe substrate NLMe was used for human carboxylesterase 1 (hCES1A) inhibition assays. […]
The luminescence signals were monitored in the microplate reader (SpectraMax iD3Molecular […]
Human carboxylesterase 2 (hCES2A) inhibition assays were conducted using FD, a known fluorescent substrate. […] The fluorescent signals (excitation/emission, 480 nm/525 nm) were continuously recorded by a microplate reader (SpectraMax iD3Molecular Devices, Austria). […]
fluorogenic probe. […] The fluorescent signals of hydrolytic product were quantified by using the microplate reader (Spectra Max M4, Austria), with the wavelength of 600 nm and 660 nm for excitation and emission, respectively. […]

Compound | response to Notum (Notum) | response to hPL [1]
O=C(c1ccccc1)C(F)(F)F [F, 2,2,2-trifluoroacetophenone] | no potent responses | no potent responses
O=S(=O)(F)c1ccc(Br)cc1 [D, 4-bromobenzenesulfonyl fluoride] | no potent responses | no potent responses
